One assay has as its target FGFR3 kinase (Homo sapiens, UniProt P22607). The assay is described as follows: Z-Lyte Kinase Assay of FGFR3. The format is biochemical. As for the experimental part:
Z-Lyte Kinase Assay of FGFR3
The final concentrations are 1, 0.33, 0.11, 0.037, 0.012, 0.004, 0.0014, 0.00046 μM, and the final concentration of DMSO is 2%. • 3) Kinase/Peptide Mixture (P/K solution): Prepare Kinase/Peptide Mixture by diluting the kinase to 0.7 μg/ml and the Z-LYTE™ Tyr 4 peptide to 4 μM in 1.33× Kinase Buffer. Mix gently by pipetting. • 4) Phospho-peptide Solution (PP solution): Add 0.4 μl of Z-LYTE™ Tyr 4 Phospho-peptide to 99.6 μl of 1.33× Kinase Buffer. • 5) ATP Solution: Prepare ATP Solution by diluting the 10 mM of ATP in 1.33× Kinase Buffer to 300 uM. • 6) Development Solution: Dilute Development Reagent B with Development Buffer as 1:128.
Shake the plate for 30 Sec and centrifuge (1500 rpm, 1 min) • Seal the plate to protect from the light and incubate the plate for 1 hour at RT (25-30[…]) • 2) Development reaction • Add 5 μl of the Development solution to all wells • Shake the plate for 30 Sec and centrifuge (1500 rpm, 1 min) • Seal the plate to protect from the light and incubate the plate for 1 hour at RT (25-30[…]) • 3) Stop and read • Add 5 μl of the Stop reagent to all wells • Shake the plate for 30 Sec and centrifuge (1500 rpm, 1 min) • Measure the value of Coumarin (Ex400 nm, Em445 nm) and fluorescein (Ex400 nm, Em520 nm), respectively.
Inhibition rate(IR)=1−%Photest Cpd/%PhoC2
• determined with add-in software for Microsoft Excel, XLfit™ (version 2.0) from ID Business Solutions (Guildford, UK)

The target of the next assay is Recombinant human FGFR2 (Homo sapiens, UniProt P21802). As to the kind of experiment: Transcreener Kinase Assay of FGFR2. The format is biochemical. The following applies: read-out: FGFR2 (FP) IC50. As for the experimental part:
Transcreener Kinase Assay of FGFR2
• Compounds were solved in DMSO and were diluted with assay buffer to 5 folds of final concentration keeping the DMSO concentration at 5%. Further dilution are needed to make final concentrations are at 1, 0.33, 0.11, 0.037, 0.012, 0.004, 0.0014, 0.0005 μM; (the final concentration of DMSO is 1%). • Enzyme/Substrate stock Preparation: Recombinant human FGFR2 and Poly E4Y are both diluted in assay buffer. The final concentration is 0.3 ng/μL for FGFR2 and 62.5 ng/μL for Poly E4Y. The mixture is being kept in ice before use; • Prepare ATP Diluents, 10 mM ATP is diluted in assay buffer, the final concentration is 25 μM; • Prepare ADP Diluents: diluted ADP (500 μM) in assay buffer, the final concentration is 25 μM; • Prepare ATP standard curve stock as following:
• In a 96-well plate, Add 5 μL of compound or control. (positive control: 5 μL of 5% DMSO; negative control: 5 μL of 500 mM EDTA) into desired wells; • Add 10 μL of Enzyme/Substrate stock into each well; • Add 10 μL of ATP Diluents to initiate the enzyme reaction and votex the plate immediately on a plate shaker; • For the wells to make standard curve, add 5 μL of 5% DMSO, 10 μL of assay buffer and 10 μL of ATP standard curve stock. • Incubate the plate for 45 min at 28[…] on a plate shaker in a low speed.
• Detection Mix Preparation: The mixture is made by dilution with MilliQ water; as following: ADP Alexa633 tracer (1:100), ADP antibody (1:158), and stop & detect buffer (1:10); • Tracer Only control Preparation: The mixture is made by dilution with MilliQ water; as following: ADP Alexa633 tracer (1:100), and stop & detect buffer (1:10) • No Tracer control Preparation: stop & detect buffer is diluted with MilliQ water; by 10 fold. • Add 25 μL of detection mix, Tracer Only control and No Tracer control into corresponding wells, respectively; • Incubate at 28 °C for 1 h, on a plate shaker in a low speed; • Measure florescence polarization (FP) on TECAN F500. Excitation wavelength: 610 nm, Emission wavelength: 670 nm.
(§1) • [ADP] in Compound well represents the ADP concentration in compound well. • [ADP] in Positive control well represents the ADP concentration in 5% DMSO well • Conversion of mP value to ADP concentration is calculated based on the formula which determined by standard curve. And mP value is measured by following the instruction provided by BellBrook Labs. (www.bellbrooklabs.com). 6. IC50: calculated using XL-Fit 2.0 software.

The next assay concerns SNU-16. As to the kind of experiment: Cellular Proliferation Assay (Cell Counting Kit-8), SNU-16. The format is cell-based. As to conditions: Homo sapiens, SNU-16 cells, 72 hours. As for the experimental part:
(§2) Cellular Proliferation Assay
(§3) • KG-1 (ATCC Accession No. CCL-246), • SNU-16 (ATCC Accession No. CRL-5974), • RT-112 (ECACC Accession No. 85061106)
(§4) • FGFR related cancer cell proliferation is measured in 96-well plates using Cell Counting Kit-8 (Dojindo CK04-13). • Seed 30000 cells/well of KG1, 5000 cells/well of SNU16, and 1000 cells/well of RT112 in a volume of 100 μL/well in growth media. • After 24 hours, dilute the compound to 10, 3.3, 1.1, 0.37, 0.12, 0.04, 0.013, 0.004 μM, keeping the DMSO concentration at 5%. • Add 10 μL of 8-point compound series to the wells of culturing cells. • Incubate at 37° C. and 5% CO2 for 72 hours • Add 10 μL/well of CCkit8 and incubate at 37° C. and 5% CO2 for an hour • Detect the optical density of each well at 450 nm on Labsystems Multiskan K3.
(§5) • ODcompound well represents the optical density of cells treated with compound. • ODcell well represents the optical density of cells without compounds treatment. (only 0.5% DMSO) • ODcontrol well represents the optical density of culture media background
(§6) The concentration of compound providing 50% of proliferation inhibition was calculated using Excel Fit.
For orientation: Tetrazolium dyes change colour on reduction, which living cells bring about.

The next assay has as its target Recombinant human FGFR1 (Homo sapiens, UniProt P11362). The assay is described as follows: Transcreener Kinase Assay of FGFR1. The format is biochemical. The following applies: read-out: FGFR1 (FP) IC50. As for the experimental part: Transcreener Kinase Assay of FGFR1
Prepare Solution • Compounds were solved in DMSO and were diluted with assay buffer to 5 folds of final concentration keeping the DMSO concentration at 5%. Further dilution are needed to make final concentrations are at 1, 0.33, 0.11, 0.037, 0.012, 0.004, 0.0014, 0.0005 μM; (the final concentration of DMSO is 1%). • Enzyme/Substrate stock Preparation: Recombinant human FGFR1 and Poly E4Y are both diluted in assay buffer.
Enzymatic Reaction • In a 96-well plate, Add 5 μL of compound or control. (positive control: 5 μL of 5% DMSO; negative control: 5 μL of 500 mM EDTA) into desired wells; • Add 10 μL of Enzyme/Substrate stock into each well; • Add 10 μL of ATP Diluents to initiate the enzyme reaction and votex the plate immediately on a plate shaker; • For the wells to make standard curve, add 5 μL of 5% DMSO, 10 μL of assay buffer and 10 μL of ATP standard curve stock. • Incubate the plate for 45 min at 28[…] on a plate shaker in a low speed.
Excitation wavelength: 610 nm, Emission wavelength: 670 nm.
as §1

The next assay deals with KG-1. As to the kind of experiment: Cellular Proliferation Assay (Cell Counting Kit-8), KG-1. The format is cell-based. As to conditions: Homo sapiens, KG1 cells, 72 hours. As for the experimental part:
as §2, §3, §4, §5, §6

Chain of FGFR3 kinase (P22607 23-806): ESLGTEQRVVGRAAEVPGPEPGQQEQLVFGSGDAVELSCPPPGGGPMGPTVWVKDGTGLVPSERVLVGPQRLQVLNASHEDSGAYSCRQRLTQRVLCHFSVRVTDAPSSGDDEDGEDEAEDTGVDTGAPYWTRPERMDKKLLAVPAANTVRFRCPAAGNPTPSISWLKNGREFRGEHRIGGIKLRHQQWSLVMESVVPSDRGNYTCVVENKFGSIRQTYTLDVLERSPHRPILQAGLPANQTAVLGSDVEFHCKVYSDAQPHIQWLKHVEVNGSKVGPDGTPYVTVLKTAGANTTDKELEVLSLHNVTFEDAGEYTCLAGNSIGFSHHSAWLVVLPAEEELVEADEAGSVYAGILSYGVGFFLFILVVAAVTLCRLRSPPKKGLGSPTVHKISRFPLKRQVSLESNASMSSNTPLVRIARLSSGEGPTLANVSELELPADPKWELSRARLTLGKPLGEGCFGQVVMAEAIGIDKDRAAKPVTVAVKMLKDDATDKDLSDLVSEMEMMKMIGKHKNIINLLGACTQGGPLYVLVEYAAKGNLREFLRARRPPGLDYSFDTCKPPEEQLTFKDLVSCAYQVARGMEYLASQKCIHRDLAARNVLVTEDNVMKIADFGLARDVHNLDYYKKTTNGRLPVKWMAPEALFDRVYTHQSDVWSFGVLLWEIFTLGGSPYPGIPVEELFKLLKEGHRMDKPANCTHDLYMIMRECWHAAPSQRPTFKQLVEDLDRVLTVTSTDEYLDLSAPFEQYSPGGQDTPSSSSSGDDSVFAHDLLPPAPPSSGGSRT
Chain of Recombinant human FGFR1 (P11362 22-822): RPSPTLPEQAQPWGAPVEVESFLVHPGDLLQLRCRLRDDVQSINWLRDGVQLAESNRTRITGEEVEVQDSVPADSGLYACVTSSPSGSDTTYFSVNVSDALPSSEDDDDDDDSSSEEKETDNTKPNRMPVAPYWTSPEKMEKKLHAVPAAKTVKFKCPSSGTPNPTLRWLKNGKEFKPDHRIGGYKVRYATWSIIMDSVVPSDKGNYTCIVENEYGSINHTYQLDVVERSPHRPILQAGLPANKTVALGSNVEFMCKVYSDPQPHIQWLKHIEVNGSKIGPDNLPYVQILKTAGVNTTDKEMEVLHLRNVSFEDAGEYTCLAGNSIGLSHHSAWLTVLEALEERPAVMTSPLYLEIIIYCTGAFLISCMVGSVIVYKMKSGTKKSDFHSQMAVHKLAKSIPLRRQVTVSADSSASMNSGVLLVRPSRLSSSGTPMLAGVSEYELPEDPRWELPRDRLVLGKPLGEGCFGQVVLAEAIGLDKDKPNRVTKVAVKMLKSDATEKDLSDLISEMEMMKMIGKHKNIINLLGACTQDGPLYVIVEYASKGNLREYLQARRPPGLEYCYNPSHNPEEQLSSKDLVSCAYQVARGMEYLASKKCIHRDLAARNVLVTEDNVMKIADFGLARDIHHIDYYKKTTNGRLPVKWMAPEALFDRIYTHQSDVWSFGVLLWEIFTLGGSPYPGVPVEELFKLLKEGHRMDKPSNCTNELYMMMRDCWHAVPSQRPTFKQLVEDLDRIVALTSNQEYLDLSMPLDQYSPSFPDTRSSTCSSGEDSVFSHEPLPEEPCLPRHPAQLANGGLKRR
Chain of Recombinant human FGFR2 (P21802 22-821): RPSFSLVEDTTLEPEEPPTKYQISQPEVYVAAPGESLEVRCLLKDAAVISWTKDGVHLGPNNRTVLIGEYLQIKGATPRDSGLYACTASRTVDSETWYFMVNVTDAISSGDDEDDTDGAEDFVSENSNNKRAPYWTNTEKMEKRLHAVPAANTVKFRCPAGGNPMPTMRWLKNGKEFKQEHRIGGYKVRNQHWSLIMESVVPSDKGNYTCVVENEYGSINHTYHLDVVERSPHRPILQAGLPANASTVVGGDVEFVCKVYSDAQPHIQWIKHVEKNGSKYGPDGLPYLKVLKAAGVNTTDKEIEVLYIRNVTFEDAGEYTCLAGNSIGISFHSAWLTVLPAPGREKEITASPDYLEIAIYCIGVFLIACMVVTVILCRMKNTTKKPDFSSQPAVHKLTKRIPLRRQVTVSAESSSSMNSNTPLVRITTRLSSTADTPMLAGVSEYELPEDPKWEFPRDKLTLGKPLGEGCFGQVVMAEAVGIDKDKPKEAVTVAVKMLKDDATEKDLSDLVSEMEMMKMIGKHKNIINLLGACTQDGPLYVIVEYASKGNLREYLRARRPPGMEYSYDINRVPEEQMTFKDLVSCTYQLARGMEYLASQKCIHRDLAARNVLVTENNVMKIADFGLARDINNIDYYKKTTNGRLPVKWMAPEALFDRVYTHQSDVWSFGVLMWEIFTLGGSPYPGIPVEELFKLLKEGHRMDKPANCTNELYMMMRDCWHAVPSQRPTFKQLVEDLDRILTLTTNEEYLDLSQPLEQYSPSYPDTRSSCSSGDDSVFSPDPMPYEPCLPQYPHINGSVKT

A word on the IC50: it is the concentration at which inhibition is half-maximal. Regarding `CONC(=O)c1cc(CCc2cnc(Nc3ccc(N4C[C@@H](C)N[C@@H](C)C4)cc3)nc2)cc(OC)c1` [Compound 41], the IC50 at FGFR3 kinase is 9 nM; on Recombinant human FGFR2 it was 6 nM; in the assay on SNU-16, 24 nM; at Recombinant human FGFR1, 4 nM; in the assay with KG-1, 38 nM.

On to `CCN1CCN(c2ccc(Nc3ncc(CCc4cc(OC)cc(C(=O)NOC)c4)cn3)cn2)CC1` [Compound 42], for which the IC50 was determined as 8 nM against FGFR3 kinase; 4 nM on Recombinant human FGFR2; 15 nM with SNU-16; 2 nM on Recombinant human FGFR1; 11 nM with KG-1.

With `CONC(=O)c1cc(CCc2cnc(Nc3ccc(OCCN4CCCC4)cc3)nc2)cc(OC)c1` [Compound 43], the IC50 against FGFR3 kinase amounted to 48 nM; at Recombinant human FGFR2, 10 nM; in the assay with SNU-16 it was 33 nM; on Recombinant human FGFR1, 16 nM; with KG-1 it was 69 nM.

Consider `CCN1CCN(c2ccc(Nc3ncc(CCc4cc(OC)cc(C(=O)NC5CC5)c4)cn3)cc2)CC1` [Compound 46], for which the IC50 was 61 nM on FGFR3 kinase; 34 nM on Recombinant human FGFR2; 113 nM with SNU-16; 132 nM at Recombinant human FGFR1; 59 nM in the assay with KG-1.

Turning to `CCN1CCN(c2ccc(Nc3ccc(CCc4cc(C(=O)NOC)cc(OC)c4C)cn3)cc2)CC1` [Compound 47], the IC50 against FGFR3 kinase stood at 8 nM; on Recombinant human FGFR2, 6 nM; in the assay on SNU-16, 74 nM; on Recombinant human FGFR1, 6 nM; in the assay with KG-1, 63 nM.

As for `CCN1CCN(c2ccc(Nc3ncc(CCc4cc(OC)cc(C(=O)NOC)c4)cn3)cc2)C[C@H]1C` [Compound 48], the concentration for half-maximal inhibition (IC50) was 15 nM against FGFR3 kinase; 5 nM at Recombinant human FGFR2; 16 nM in the assay with SNU-16; 5 nM on Recombinant human FGFR1; 11 nM with KG-1.

Turning to `CCN1CCN(c2ccc(Nc3ncc(CCc4cc(C(=O)NOC)cc(OC)c4C)cn3)cc2)CC1` [Compound 52], the IC50 on FGFR3 kinase worked out at 5 nM; on Recombinant human FGFR2, 2 nM; in the assay on SNU-16, 5 nM; on Recombinant human FGFR1 it was 1 nM; with KG-1, 4 nM.

On to `CCN1CCN(c2ccc(Nc3ncc(CCc4cc(C(=O)NC)cc(OC)c4Cl)cn3)cc2)CC1` [Compound 56], for which the half-inhibitory concentration (IC50) on FGFR3 kinase was 9 nM; on Recombinant human FGFR2, 4 nM; in the assay on SNU-16, 17 nM; at Recombinant human FGFR1 it was 4 nM; in the assay on KG-1, 7 nM.

Take `CCN1CCN(c2ccc(Nc3ncc(CCc4cc(C(=O)NC5CC5)cc(OC)c4F)cn3)cc2)CC1` [Compound 57]: the IC50 came out at 14 nM at FGFR3 kinase; 9 nM on Recombinant human FGFR2; 32 nM in the assay with SNU-16; 8 nM on Recombinant human FGFR1; 16 nM in the assay on KG-1.

Regarding `CCN1CCN(c2ccc(Nc3ncc(CCc4cc(C(=O)NOC)cc(OC)c4Cl)cn3)cc2)CC1` [Compound 59], the IC50 was 2 nM against FGFR3 kinase; 2 nM at Recombinant human FGFR2; 4 nM with SNU-16; 3 nM at Recombinant human FGFR1; 2 nM in the assay with KG-1.

Take `CNC(=O)c1cc(CCc2cnc(Nc3ccnnc3)nc2)c(F)c(OC)c1` [Compound 61]: the IC50 worked out at 62 nM on FGFR3 kinase; 17 nM on Recombinant human FGFR2; 158 nM in the assay with SNU-16; 54 nM at Recombinant human FGFR1; 400 nM in the assay with KG-1.

Turning to `CCN1CCN(c2ccc(Nc3ccc(CCc4cc(OC)cc(C(=O)NOC)c4)cn3)cn2)CC1` [Compound 75], the IC50 on FGFR3 kinase turned out to be 61 nM; at Recombinant human FGFR2, 33 nM; in the assay on SNU-16, 94 nM; on Recombinant human FGFR1, 41 nM; in the assay with KG-1, 123 nM.

On to `CCN1CCN(c2cc(F)cc(Nc3ncc(CCc4cc(OC)cc(C(=O)NOC)c4)cn3)c2)CC1` [Compound 77], for which the IC50 is 4 nM at FGFR3 kinase; 3 nM on Recombinant human FGFR2; 12 nM in the assay with SNU-16; 5 nM on Recombinant human FGFR1; 11 nM in the assay with KG-1.

As for `CNC(=O)c1cc(CCc2cnc(Nc3ccn(C)c(=O)c3)nc2)c(F)c(OC)c1` [Compound 93], the IC50 at FGFR3 kinase came out at 11 nM; on Recombinant human FGFR2, 9 nM; with SNU-16, 47 nM; on Recombinant human FGFR1, 18 nM; in the assay on KG-1, 125 nM.

Consider `CNC(=O)c1cc(CCc2cnc(Nc3ccc4nnnn4c3)nc2)c(F)c(OC)c1` [Compound 96], for which the IC50 on FGFR3 kinase was 119 nM; at Recombinant human FGFR2 it was 44 nM; in the assay on SNU-16, 150 nM; on Recombinant human FGFR1, 63 nM; in the assay on KG-1 it was 161 nM.

For `CONC(=O)c1cc(CCc2cnc(Nc3ccc(OC)cc3)nc2)cc(OC)c1` [Compound 106], the IC50 turned out to be 35 nM against FGFR3 kinase; 7 nM at Recombinant human FGFR2; 33 nM in the assay on SNU-16; 10 nM at Recombinant human FGFR1; 40 nM in the assay on KG-1.

As for `CONC(=O)c1cc(CCc2cnc(Nc3ccc(Cl)cc3)nc2)cc(OC)c1` [Compound 113], the IC50 against FGFR3 kinase is 146 nM; at Recombinant human FGFR2, 18 nM; in the assay on SNU-16 it was 89 nM; at Recombinant human FGFR1 it was 48 nM; with KG-1, 148 nM.

(Values after US20160052926A1, “NOVEL PYRIMIDINE AND PYRIDINE COMPOUNDS AND USAGE THEREOF” (HUTCHISON MEDIPHARMA LIMITED, priority 2013, published 2016).)
